Experimental data as given in ChEMBL document CHEMBL1140731 (J Med Chem, 2008).
In brackets after ≈: the same amount, converted by molar mass. Activity calls are given as the source filed them. The calls are words filed in the database; no cut-off is given here.

Tests used:
[1] = target: Transient receptor potential cation channel subfamily V member 1 (Homo sapiens, UniProt Q8NER1); test: Blockade of human TRPV1 receptor assessed as inhibition of capsaicin-induced calcium flux
[2] = Aqueous solubility at pH 1; assay type: physicochemical; conditions: buffer
[3] = Aqueous solubility at pH 6.8; assay type: physicochemical; conditions: buffer
[4] = Half life in rat at 10 umol/kg, iv administered in PEG400; assay type: ADME, organism-based; conditions: in vivo
[5] = Volume of distribution beta in rat at 10 umol/kg, iv administered in PEG400; assay type: ADME, organism-based; conditions: in vivo, read-out: Vbeta
[6] = Cmax in rat at 10 umol/kg, po administered in PEG400; assay type: ADME, organism-based; design: dose 10 umol/kg, route oral; conditions: in vivo
[7] = Oral bioavailability in rat at 10 umol/kg administered in PEG400; assay type: ADME, organism-based; conditions: in vivo
[8] = Half life in dog at 5 umol/kg, iv administered in PEG400; assay type: ADME, organism-based, Canis lupus familiaris; conditions: in vivo
[9] = Volume of distribution beta in dog at 5 umol/kg, iv administered in PEG400; assay type: ADME, organism-based, Canis lupus familiaris; conditions: in vivo, read-out: Vbeta
[10] = Half life in monkey at 5 umol/kg, iv administered in PEG400; assay type: ADME, organism-based, Macaca mulatta; conditions: rhesus monkey, in vivo
[11] = Volume of distribution beta in monkey at 5 umol/kg, iv administered in PEG400; assay type: ADME, organism-based, Macaca mulatta; conditions: rhesus monkey, in vivo, read-out: Vbeta
[12] = Cmax in monkey at 10 umol/kg, po administered in PEG400; assay type: ADME, organism-based, Macaca mulatta; design: dose 10 umol/kg, route oral; conditions: rhesus monkey, in vivo
[13] = Oral bioavailability in monkey at 10 umol/kg administered in PEG400; assay type: ADME, organism-based, Macaca mulatta; conditions: rhesus monkey, in vivo
[14] = Permeability across human Caco-2 cells; assay type: ADME, cell-based
Rattus norvegicus [15] = species: Rattus norvegicus; test: Decrease in carrageenan-induced thermal hyperalgesia in Sprague-Dawley rat; assay type: functional
Rattus norvegicus [16] = test: Decrease in carrageenan-induced thermal hyperalgesia in Sprague-Dawley rat at 100 umol/kg; assay type: functional, organism-based
[17] = Ratio of drug level in brain to plasma in Sprague-Dawley rat; assay type: ADME; conditions: read-out: BPR
[18] = Cmax in dog at 5 umol/kg, po administered in PEG400; conditions: in vivo
[19] = Oral bioavailability in dog at 5 umol/kg administered in PEG400; conditions: in vivo
[20] = Cmax in dog at 5 umol/kg, po administered in oleic acid/cremophor/PEG400 (80:10:10); conditions: in vivo
[21] = Oral bioavailability in dog at 5 umol/kg administered in oleic acid/cremophor/PEG400 (80:10:10); conditions: in vivo

Chain of Transient receptor potential cation channel subfamily V member 1 (Q8NER1 whole entry): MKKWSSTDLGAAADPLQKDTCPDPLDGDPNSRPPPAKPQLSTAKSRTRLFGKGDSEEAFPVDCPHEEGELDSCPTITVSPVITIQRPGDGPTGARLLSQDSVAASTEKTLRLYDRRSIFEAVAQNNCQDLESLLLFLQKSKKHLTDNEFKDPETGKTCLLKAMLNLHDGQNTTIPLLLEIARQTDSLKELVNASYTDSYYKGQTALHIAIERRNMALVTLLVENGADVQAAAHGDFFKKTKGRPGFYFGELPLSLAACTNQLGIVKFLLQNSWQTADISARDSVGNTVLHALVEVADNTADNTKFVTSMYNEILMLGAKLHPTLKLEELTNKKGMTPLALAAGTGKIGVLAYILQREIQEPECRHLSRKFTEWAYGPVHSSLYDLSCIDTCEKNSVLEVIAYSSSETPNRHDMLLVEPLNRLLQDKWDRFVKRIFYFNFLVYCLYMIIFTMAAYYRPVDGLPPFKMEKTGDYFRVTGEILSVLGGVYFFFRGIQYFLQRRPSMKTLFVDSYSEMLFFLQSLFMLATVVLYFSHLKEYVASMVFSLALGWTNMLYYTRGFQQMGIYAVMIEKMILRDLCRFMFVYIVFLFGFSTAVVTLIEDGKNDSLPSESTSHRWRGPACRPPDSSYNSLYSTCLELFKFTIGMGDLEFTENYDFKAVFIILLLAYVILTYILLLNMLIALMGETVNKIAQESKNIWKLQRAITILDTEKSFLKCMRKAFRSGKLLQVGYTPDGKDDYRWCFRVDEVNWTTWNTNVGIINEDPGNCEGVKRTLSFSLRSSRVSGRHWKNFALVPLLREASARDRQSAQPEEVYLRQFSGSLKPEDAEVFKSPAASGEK

Row | Compound | IC50 [1] | also measured
1 | O=C(Nc1cccc2[nH]ncc12)NC1CCc2cc(N3CCCCC3)ccc21 (stereo unspecified) | 14 nM | 
2 | O=C(Nc1cccc2[nH]ncc12)NC1CCc2c(C3CC3)cccc21 (stereo unspecified) | 5 nM | 
3 | O=C(Nc1cccc2[nH]ncc12)NC1CCc2c1cccc2N1CCCC1 (stereo unspecified) | 21 nM | 
4 | O=C(Nc1cccc2[nH]ncc12)NC1CCc2ncccc21 (stereo unspecified) | 5820 nM | 
5 | CC(C)(C)c1ccc2c(c1)CC(NC(=O)Nc1cccc3[nH]ncc13)C2 (stereo unspecified) | 10 nM | 
6 | O=C(Nc1cccc2[nH]ncc12)NC1CCc2c1cccc2N1CCOCC1 (stereo unspecified) | 65 nM | 
7 | CC(C)(C)c1ccc2c(c1)CC(F)C2NC(=O)Nc1cccc2[nH]ncc12 (stereo unspecified) | 35 nM | 
8 | COc1ccc2c(c1)CCC2NC(=O)Nc1cccc2[nH]ncc12 (stereo unspecified) | 40 nM | 
9 | O=C(Nc1cccc2[nH]ncc12)NC1CCc2cc(Cl)ccc21 (stereo unspecified) | 10 nM | 
10 | CN1CCC(NC(=O)Nc2cccc3[nH]ncc23)c2ccc(C(F)(F)F)cc21 (stereo unspecified) | 7 nM | 
11 | CC(C)(C)c1ccc2c(c1)CC(F)(F)C2NC(=O)Nc1cccc2[nH]ncc12 (stereo unspecified) | 216 nM | 
12 | CC(C)(CO)c1ccc2c(c1)CC[C@H]2NC(=O)Nc1cccc2[nH]ncc12 | 127 nM | 
13 | O=C(Nc1cccc2[nH]ncc12)NC1CCc2c1ccc(F)c2N1CCOCC1 (stereo unspecified) | 5 nM | 
14 | O=C(Nc1cccc2[nH]ncc12)NC1CCc2c1cccc2N1CCC(C(F)(F)F)CC1 (stereo unspecified) | 7 nM | 
15 | O=C(Nc1cccc2[nH]ncc12)NC1CCc2ccccc21 (stereo unspecified) | 151 nM | 
16 | O=C(Nc1cccc2[nH]ncc12)NC1CCOc2cc(C(F)(F)F)ccc21 (stereo unspecified) | 11 nM | 

Row | Compound | IC50 [1] | also measured
17 | O=C(Nc1cccc2[nH]ncc12)NC1CCc2cc(C3CC3)ccc21 (stereo unspecified) | 4 nM | 
18 | O=C(Nc1cccc2[nH]ncc12)NC1CCc2cc(C(F)(F)F)ccc21 (stereo unspecified) | 3 nM | 
19 | O=C(Nc1cccc2[nH]ncc12)NC1CCc2cccnc21 (stereo unspecified) | 1350 nM | 
20 | Cc1ccc2c(c1)C(NC(=O)Nc1cccc3[nH]ncc13)CC2 (stereo unspecified) | 7200 nM | 
21 | CC(C)(C)c1ccc2c(c1)CC[C@H]2N/C(=N/C#N)Nc1cccc2[nH]ncc12 | 34 nM | 
22 | O=C(Nc1cccc2[nH]ncc12)NC1CCc2cc(Br)ccc21 (stereo unspecified) | 9 nM | 
23 | CC(C)(C)c1ccc2c(c1)CC[C@H]2NC(=S)Nc1cccc2[nH]ncc12 | 97 nM | 
24 | CC(C)(C#N)c1cccc2c1CCC2NC(=O)Nc1cccc2[nH]ncc12 (stereo unspecified) | 19 nM | 
25 | Cc1cccc2c1CCC2NC(=O)Nc1cccc2[nH]ncc12 (stereo unspecified) | 46 nM | 
26 | O=C(Nc1cccc2[nH]ncc12)NC1CCc2c1cccc2N1CCCCC1 (stereo unspecified) | 10 nM | 
27 | Cc1ccc2c(c1)CCC2NC(=O)Nc1cccc2[nH]ncc12 (stereo unspecified) | 11 nM | 
28 | CC(C)(C)c1ccc2c(c1)CC[C@H]2NC(=O)Nc1cccc2[nH]ncc12 [ABT-102] |  | Solubility [2]: 0.102 µg/mL (≈ 0.293 µM); Solubility [3]: 0.0573 µg/mL (≈ 0.164 µM); half-life [4]: 1.7 h; Vd [5]: 2.8 L/kg; Cmax [6]: 250 ng/mL; bioavailability [7]: 70%; half-life [8]: 1.8 h; Vd [9]: 1.6 L/kg; half-life [10]: 1.9 h; Vd [11]: 1.7 L/kg; Cmax [12]: 310 ng/mL; bioavailability [13]: 25%; Papp [14]: > 18 ×10⁻⁶ cm/s; ED50 (Rattus norvegicus [15]): 20 µmol/kg; Activity (Rattus norvegicus [16]): Active; Kp [17]: 0.32; Cmax [18]: 390 ng/mL; bioavailability [19]: 22%; Cmax [20]: 650 ng/mL; bioavailability [21]: 60%
29 | O=C(Nc1cccc2[nH]ncc12)NC1CCc2c1cccc2C(F)(F)F (stereo unspecified) | 10 nM | 
30 | O=C(Nc1cccc2[nH]ncc12)NC1CCc2cc(F)ccc21 (stereo unspecified) | 52 nM | 
31 | CC(C)(C)c1cccc2c1CCC2NC(=O)Nc1cccc2[nH]ncc12 (stereo unspecified) | 14 nM | 
32 | Cc1cccc2c1C(NC(=O)Nc1cccc3[nH]ncc13)CC2 (stereo unspecified) | 595 nM | 
